Reference: patent US6329547A, “Vinylbenzene derivatives” (Santen Pharmaceutical Co., Ltd., priority 1998, dated 2001)
Each block holds one compound with its values, some of them ahead of it.

Assays:
[1] = tested on: bovine cultured trabecular meshwork cells; assay: Effects on morphology of trabecular meshwork cells (change in cell area by image analysis); assay type: cell-based; details: Bos taurus, 3 h, 37° C., three hours, read-out: EC50 (concentration required to reduce the cell area of the trabecular meshwork cells by 50%)
Description: A possibility has been reported that drugs having effects of increasing aqueous humor outflow can be found by evaluating effects of drugs on morphology of cultured trabecular meshwork cells (Invest. Ophthalmol. Vis. Sci., 33, 2631-2640 (1992)). Accordingly, effects of the present compounds on morphology of bovine cultured trabecular meshwork cells were studied in the similar manner to the method described in the above-mentioned literature. Experimental Method Morphological changes in bovine cultured trabecular meshwork cells by adding the present compounds were quantitatively evaluated by image analysis. […] Bovine trabecular meshwork cells (passage number 1 to 5) cultured in a basal medium for mammalian cell culture d-MEM (Dulbecco's Modified Eagle Medium, manufactured by Gibco Co., Ltd.) containing fetal bovine serum (10%), amphotericin B (2.5 μg/ml) and gentamicin (50 μg/ml) were treated with a trypsin-EDTA solution (0.05% trypsin, 0.53 mM EDTA·4 Na) 24 hours before the later drug treatment and seeded in a 24-well plate (10^4 cells/well). Twelve hours before the later drug treatment, the cells were washed with phosphate-buffered physiological saline, and then the medium was replaced by D-MEM containing amphotericin B (2.5 μg/ml) and gentamicin (50 μg/ml) (hereinafter referred to as "medium A"). […] A test compound was dissolved in dimethyl sulfoxide (DMSO), and the medium A was added to the solution, followed by sterilizing the solution by filtration. The medium A was further added to the solution to dilute it at a prescribed concentration. This diluted solution was maintained isothermally under a 5% carbon dioxide gas atmosphere at 37° C. for one hour, from one hour before the later drug treatment to prepare a test compound solution. Method of Measurement First, cells were photographed using a well-scanner one hour before the drug treatment. Next, the medium of the cells was replaced by the test compound solution, and the cells were treated with the drug and incubated under a 5% carbon dioxide gas atmosphere at 37° C. for three hours. Then, the same cells as those photographed one hour before the drug treatment were photographed using the well-scanner. Image Analysis Photographed cell images were incorporated from the photographs into an image analysis system with a CCD camera (manufactured by […] Co., Ltd.). Outlines of the incorporated cell images were traced, and areas were measured. Degrees of the morphological changes made by the test compounds on the trabecular meshwork cells are expressed by the following rates of changes in areas (%).

[2] = tested on: cynomolgus monkeys (intraocular pressure); assay: Intraocular pressure-lowering effects by anterior chamber administration; assay type: in vivo, cynomolgus monkey; details: 10 μl of 10^-3 M, 1% DMSO into anterior chamber, vehicle in other eye
Description: Healthy male cynomolgus monkeys weighing 4.0 to 7.0 kg and being four to seven years old were used as experimental animals.
A test compound to be used was dissolved in dimethyl sulfoxide (DMSO), and then phosphate-buffered physiological saline was added to the solution to dilute it at a prescribed concentration (10^-3 M, 1% DMSO), followed by sterilizing the solution by filtration to prepare a test compound solution.
Only vehicle was administered into the other eye.
The intraocular pressure was measured with an applanation tonometer immediately before and prescribed periods after administering the test compound. […]
IOP(D-t): Intraocular pressure of the eye into which the test compound was administered, measured (t) hours after administering the test compound
IOP(D-0): Intraocular pressure of the eye into which the test compound was administered, measured immediately before administering the test compound
IOP(V-t): Intraocular pressure of the eye into which the vehicle was administered, measured (t) hours after administering the vehicle
IOP(V-0): Intraocular pressure of the eye into which the vehicle was administered, measured immediately before administering the vehicle

[3] = tested on: laser-induced high intraocular pressure monkey models (intraocular pressure); assay: Intraocular pressure-lowering effects by instillation using laser-induced high intraocular pressure animal models; assay type: in vivo, cynomolgus monkey; details: for Intraocular pressure change difference: 0.3% solution instilled twice a day, six hours after morning instillation, vs vehicle, average of five eyes
Description: A method of evaluating intraocular pressure-lowering effects of the drugs by instilling them into laser-induced high intraocular pressure monkey models has been reported (Arch. Opththalmol., 105, 249-252 (1987)). Accordingly, intraocular pressure-lowering effects by instilling the present compound were studied in the similar manner to the method described in the above-mentioned literature.
Male cynomolgus monkeys weighing 5 to 6 kg were used for experiment. Five eyes of four monkeys of which intraocular pressure had been elevated by irradiating trabecular meshwork of the monkeys at 100 to 150 spots every one week with an argon laser (Coherent Radiation, Models 800) were used. Laser irradiation conditions were set at 1000 mW and 0.2 sec.
Preparation of Test Compound Solution
A test compound was dissolved in purified water, then concentrated glycerin and sodium chloride were added to the solution to adjust osmotic pressure to 1, and 0.1 M aqueous sodium hydroxide solution was added thereto to adjust pH to 7.4 and to prepare a 0.3% solution. Then, the solution was sterilized by filtration to prepare a test compound solution.
Method of Administering Drugs
First, in order to study effects of a vehicle on intraocular pressure, only vehicle was instilled twice a day (at 10 a.m. and 5 p.m.) for one week continuously. Then, the test compound solution was instilled twice a day (at 10 a.m. and 5 p.m.) for one week continuously.
Intraocular pressure was measured with an applanation tonometer before administering the drug and a prescribed period after the instillation. Chlorpromazine (1 mg/kg) was administered intramuscularly to the cynomolgus monkey one hour before the measurement to sedate the monkey, one drop of a 0.4% oxybuprocaine hydrochloride eyedrops, which is a local anesthetic, was instilled into the monkey, and then the intraocular pressure was measured.
Intraocular pressure change difference (mmHg)=[IOP(D-6)-IOP(D-0)]-[IOP(V-6)-IOP(V-0)]
IOP(D-6): Intraocular pressure measured six hours after the morning instillation of the test compound solution
IOP(D-0): Intraocular pressure measured before administering the test compound solution
IOP(V-6): Intraocular pressure measured six hours after the morning instillation of the vehicle
IOP(V-0): Intraocular pressure measured before administering the vehicle

[4] = tested on: trabecular meshwork cells; details: Japanese Examined Patent Publication No. 13013/1995; cited from earlier work

EC50 [1]: 660 nM
Compound: C=C(C(=O)c1ccc(/C=C/C(=O)O)cc1)c1c(F)c(F)c(F)c(F)c1F [Compound No. 8-1, 4-[2-(2,3,4,5,6-Pentafluorophenyl)acryloyl]cinnamic acid]

EC50 [1]: 810 nM
Compound: C=C(C(=O)c1ccc(/C=C/C(=O)O)cc1)c1ccccc1 [Compound No. 8-7, 4-(2-Phenylacryloyl)cinnamic acid]
Maximum intraocular pressure-lowering value ([2]; average value of six samples): 7.0 mmHg
Intraocular pressure change difference ([3]; 1st day): +5.8 mmHg
Intraocular pressure change difference ([3]; 2nd day): -7.6 mmHg
Intraocular pressure change difference ([3]; 3rd day): -6.6 mmHg
Intraocular pressure change difference ([3]; 4th day): -1.2 mmHg
Intraocular pressure change difference ([3]; 5th day): -6.6 mmHg
Intraocular pressure change difference ([3]; 6th day): -8.6 mmHg
Intraocular pressure change difference ([3]; 7th day): -2.8 mmHg
intraocular pressure-lowering effect (in words) ([3]; instillation, 0.3% solution twice a day for one week): excellent intraocular pressure-lowering effect
disorder in an anterior segment of the eye ([3]; throughout all instillation periods, 0.3% solution twice a day for one week): No disorder was recognized in an anterior segment of the eye

EC50 [1]: 2900 nM
Compound: C=C(C(=O)c1ccc(/C(C)=C/C(=O)O)cc1)c1ccccc1 [Compound No. 8-10, β-Methyl-4-(2-phenylacryloyl)cinnamic acid]

EC50 [1]: 1700 nM
Compound: C=C(C(=O)c1ccc(/C=C/C(=O)O)cc1)c1ccc([N+](=O)[O-])cc1 [Compound No. 8-2, 4-[2-(4-Nitrophenyl)acryloyl]cinnamic acid]

Compound: C=C(CC)C(=O)c1ccc(OCC(=O)O)c(Cl)c1Cl [Ethacrynic acid, reference compound]
EC50 [1]: 62000 nM
Maximum intraocular pressure-lowering value ([2]; average value of five samples): 2.0 mmHg
effect on intraocular pressure and trabecular meshwork cells reported in the literature [4]: lowering intraocular pressure by making a morphological change in trabecular meshwork cells and increasing the rate of aqueous humor outflow

EC50 [1]: 3900 nM
Compound: C=C(C(=O)c1ccc(/C=C(\C)C(=O)O)cc1)c1ccccc1 [Compound No. 8-9, α-Methyl-4-(2-phenylacryloyl)cinnamic acid]
